Measured values published in patent US8865656B2, “Beta-hairpin peptidomimetics having CXCR4 antagonizing activity” (Polyphor AG, priority 2009, dated 2014).
Positions of bridges follow the written chain, without caps; N, C: chain ends. Non-standard residues stand in square brackets, D forms with d. Residues, ends and D or L forms follow the SMILES beside them. Oic = O=C(O)[C@@H]1C[C@@H]2CCCC[C@@H]2N1; β3hS = N[C@@H](CO)CC(=O)O; Dab = NCC[C@H](N)C(=O)O

Assays:
human CXCR4 = target: T1, human CXCR4 (Homo sapiens, UniProt P61073); assay: Ca2+-assay: CXCR4-antagonizing activity (SDF-1 induced calcium mobilization); assay type: cell-based; conditions: mouse pre-B cell line 300-19 stably transfected with human CXCR4, read-out: IC50% [nM] ± SD, CXCR4 receptor
T1 construct: expressed in transfected cells; host or cells: mouse pre-B cell line 300-19
Description: 2.3. Ca^2+-Assay: CXCR4-Antagonizing Activity of the Peptides
Increases in intracellular calcium were monitored using a Flexstation 384 (Molecular Devices, Sunnyvale, Calif.) to assay the depsipeptides for CXCR4 antagonism in a mouse pre-B cell line 300-19 stably transfected with human CXCR4 (E. Oberlin, A. Amara, F. Bachelerie, C. Bessia, J.-L. Virelizier, F. Arenzana-Seisdedos, O. Schwartz, J.-M. Heard, I. Clark-Lewis, D. F. Legler, M. Loetscher, M. Baggiolini, B. Moser, Nature 1996, 382, 833-835; M. Loetscher, T. Geiser, T. O'Reilly, R. Zwalen, M. Baggiolini, B. Moser, J. Biol. Chem. 1994, 269, 232-237; M. D'Apuuo, A. Rolink, M. Loetscher, J. A. Hoxie, I. Clark-Lewis, F. Melchors, M. Baggiolini, B. Moser, Eur. J. Immunol. 1997, 27, 1788-1793). The cells were batch loaded with the Calcium 4 Assay kit (Molecular Devices) in assay buffer (Hanks Balanced salt solution [HBSS], 20 mM HEPES, pH 7.4, 0.1% BSA) for 1 h at room temperature and labeled cells were dispensed into black 96 well assays plates (Costar No. 3603). Calcium mobilization induced by stromal-derived factor-1 (SDF-1) was measured in the Flexstation 384 (excitation: 485 nm; emission: 525 nm) for 90 seconds. Antagonist activity of peptides was determined by spiking the cells with compounds prior to SDF-1 addition. Dose response curves (compound concentration versus % maximum response for SDF-1) were determined for each antagonist and IC50 values were calculated by fitting the data to a four parameter logistic equation using SoftmaxPro 4.8 (Molecular Devices).

[1] = Plasma stability in mouse plasma
Method: (§1) The stability of the peptides in human and mouse plasma was determined by applying the following method: 315 μL/deep well of freshly thawed human plasma (Basler Blutspende-dienst) and mouse plasma (Harlan Sera-Lab, UK), respectively, were spiked with 35 μL/well of compound in PBS (100 μM, triplicate) and incubated at 37° C. […] Following shaking for 2 min the occurred suspensions were filtrated by vacuum and finally, 100 μL of each filtrate were transferred to a propylene microtiter plate, and analyzed by LC/MS as follows: Column: Waters, XBridge C18, mobile phases: (A) water+0.1% formic acid and (B) acetonitrile/water, 95/5 (v/v)+0.1% formic acid, gradient: 5%-100% (B) in 2 minutes, electrospray ionization, MRM detection (triple quadrupole). The peak areas were determined and triplicate values are averaged. The stability is expressed in percent of the initial value at t=0. (tx/to×100). By using the TREND function of EXCEL (Microsoft Office 2003) T1/2 were determined.

[2] = Plasma stability in human plasma
Method: as §1

in vitro [3] = assay type: cell-based; conditions: human
Method: (§2) The cytotoxicity of the depsipeptides to HELA cells (Acc57) and COS-7 cells (CRL-1651) was determined using the MTT reduction assay (T. Mossman, J. Immunol. Meth. 1983, 65, 55-63; M. V. Berridge, A. S. Tan, Arch. Biochem. Biophys. 1993, 303, 474-482). Briefly, the method was as follows: 7000 HELA cells/well and 4500 COS-7 cells/well were seeded and grown in 96-well microtiter plates for 24 h at 37° C. at 5% CO2. Thereafter, time zero (Tz) was determined by MTT reduction (see below). The supernatant of the remaining wells was discarded, and fresh medium and compounds in serial dilutions (12.5, 25 and 50 μM, triplicates) were pipetted into the wells. After incubation of the cells for 48 h at 37° C. at 5% CO2 the supernatant was discarded again and 100 μL MTT reagent (0.5 mg/mL in RPMI1640 and DMEM, respectively)/well was added. Following incubation at 37° C. for 2 h the media were aspirated and the cells were spiked (100 μL isopropanol/well). The absorbance of the solubilized formazan was measured at 595 nm (OD595peptide). For each concentration averages were calculated from triplicates. The percentage of growth was calculated as follows: (OD595peptide-OD595Tz-OD595Empty well)/(OD595Tz-OD595Empty well)×100%. The GI50 (Growth Inhibition) concentrations were calculated for each depsipeptide by using a trend line function for the concentrations (50, 25, 12.5 and 0 μM), the corresponding percentages and the value 50, (=TREND (C50:C0, %50:%0, 50).

[4] = system: human red blood cells (hRBC); conditions: red cells of human, 1 h
Method: The peptides were tested for their hemolytic activity against human red blood cells (hRBC). Fresh hRBC were washed three times with phosphate buffered saline (PBS) and centrifuged for 10 min at 2000×g. Compounds (100 μM) were incubated with 20% hRBC (v/v) for 1 h at 37° C. The final erythrocyte concentration was approximately 0.9×10^9 cells/mL. A value of 0% and 100% cell lyses, respectively, was determined by incubation of hRBC in the presence of PBS alone and 0.1% Triton X-100 in H2O, respectively. The samples were centrifuged, the supernatants were 20-fold diluted in PBS buffer and the optical densities (OD) were measured at 540 nm.
Percent hemolysis was calculated as follows: (OD540peptide/OD540H2O)×100%.

in vitro [5] = assay type: cell-based; conditions: African green monkey
Method: as §2

[6] = mouse plasma, 37° C., sampling up to 240 min
[7] = human plasma, 37° C., sampling up to 240 min

T1 sequence (P61073 whole entry): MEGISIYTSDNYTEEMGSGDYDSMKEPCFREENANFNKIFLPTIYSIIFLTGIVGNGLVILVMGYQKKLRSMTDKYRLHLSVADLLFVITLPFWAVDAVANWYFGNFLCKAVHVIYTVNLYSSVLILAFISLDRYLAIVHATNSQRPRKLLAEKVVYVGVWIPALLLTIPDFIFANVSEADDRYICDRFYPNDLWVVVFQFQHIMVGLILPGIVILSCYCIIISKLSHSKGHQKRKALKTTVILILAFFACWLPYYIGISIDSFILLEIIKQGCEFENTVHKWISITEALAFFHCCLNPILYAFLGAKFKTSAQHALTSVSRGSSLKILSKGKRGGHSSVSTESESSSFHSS

| SMILES | IC50 (human CXCR4) [nM] | Plasmastability mouse pl. T1/2 [1, 6] [h] | Plasmastability human pl. T1/2 [2, 7] [h] | GI50 (in vitro [3]) [µM] | Hemolysis at 100 μM [4] [%] | GI50 (in vitro [5]) [µM] | Plasmastability mouse pl. T1/2 ([1]; mouse, plasma, 10 μM) [h] | Plasmastability human pl. T1/2 ([2]; human, plasma, 10 μM) [h] |
| --- | --- | --- | --- | --- | --- | --- | --- | --- |
| C[C@@H]1NC(=O)[C@H](Cc2c[nH]cn2)NC(=O)[C@H](Cc2ccc(O)cc2)NC(=O)[C@@H]2C[C@@H]3CCCC[C@@H]3N2C(=O)[C@H]2CCCN2C(=O)[C@H](CCCCN)NC(=O)[C@H](CCC(N)=O)NC(=O)[C@H](Cc2ccc(O)cc2)NC(=O)[C@@H]2CSSC[C@H](NC1=O)C(=O)N[C@@H](CO)C(=O)N[C@@H](C)C(=O)N1CCC[C@@H]1C(=O)N[C@@H](CCN)C(=O)N[C@@H](CCCNC(=N)N)C(=O)N[C@@H](Cc1ccc(O)cc1)C(=O)N2 [compound 16] (cyclo(ACSA[dP][Dab]RYCYQK[dP][Oic]YH); disulfide 2-9) | 1.46 ± 1.6 | 4 | 4 | > 50 | 0.5 | > 50 |  |  |
| C[C@@H]1NC(=O)[C@H](Cc2c[nH]cn2)NC(=O)[C@H](Cc2ccc(O)cc2)NC(=O)[C@@H]2CCCN2C(=O)[C@@H](Cc2ccc(O)cc2)N(C)C(=O)[C@H](CCCCN)NC(=O)[C@H](CCC(N)=O)NC(=O)[C@H](Cc2ccc(O)cc2)NC(=O)[C@@H]2CSSC[C@H](NC1=O)C(=O)N[C@@H](CO)C(=O)N[C@@H](C)C(=O)N1CCC[C@@H]1C(=O)N[C@@H](CCN)C(=O)N[C@@H](CCCNC(=N)N)C(=O)N[C@@H](Cc1ccc(O)cc1)C(=O)N2 [compound 7] | 0.33 ± 0.1 | 4 | 4 | > 50 | 0.6 | > 50 |  |  |
| C[C@@H]1NC(=O)[C@H](Cc2c[nH]cn2)NC(=O)[C@H](Cc2ccc(O)cc2)NC(=O)[C@@H]2CCCN2C(=O)[C@H]2CCCN2C(=O)[C@H](CCCCN)NC(=O)[C@H](CCC(N)=O)NC(=O)[C@H](Cc2ccc(O)cc2)NC(=O)[C@@H]2CSSC[C@H](NC1=O)C(=O)N[C@@H](CO)CC(=O)N[C@@H](C)C(=O)N1CCC[C@@H]1C(=O)N[C@@H](CCN)C(=O)N[C@@H](CCCNC(=N)N)C(=O)N[C@@H](Cc1ccc(O)cc1)C(=O)N2 [compound 20] (cyclo(YHAC[β3hS]A[dP][Dab]RYCYQK[dP]P); disulfide 4-11) | 2.66 ± 2.2 |  |  | > 50 | 0.6 | > 50 | 4 | 4 |
| C[C@@H]1NC(=O)[C@H](CO)NC(=O)[C@@H]2CSSC[C@H](NC(=O)[C@H](Cc3ccc(O)cc3)NC(=O)[C@H](CCCNC(=N)N)NC(=O)[C@H](CCN)NC(=O)[C@@H](Cc3ccc(O)cc3)NC1=O)C(=O)N[C@@H](Cc1ccc(O)cc1)C(=O)N[C@@H](CCC(N)=O)C(=O)N[C@@H](CCCCN)C(=O)N(C)[C@H](C)C(=O)N1CCC[C@H]1C(=O)N[C@@H](Cc1ccc(O)cc1)C(=O)N[C@@H](Cc1c[nH]cn1)C(=O)N[C@@H](C)C(=O)N2 [compound 12] | 0.1 ± 0.02 | 4 | 4 | > 50 | 0.9 | > 50 |  |  |
| CC[C@@H](C)[C@@H]1C(=O)N2CCC[C@H]2C(=O)N[C@@H](Cc2ccc(O)cc2)C(=O)N[C@@H](Cc2c[nH]cn2)C(=O)N[C@@H](C)C(=O)N[C@H]2CSSC[C@H](NC(=O)[C@H](Cc3ccc(O)cc3)NC(=O)[C@H](CCCNC(=N)N)NC(=O)[C@H](CCN)NC(=O)[C@H]3CCCN3C(=O)[C@H](C)NC(=O)[C@H](CO)NC2=O)C(=O)N[C@@H](Cc2ccc(O)cc2)C(=O)N[C@@H](CCC(N)=O)C(=O)N[C@@H](CCCCN)C(=O)N1C [compound 2] | 1.22 ± 1 | 4 | 4 | > 50 | 0.6 | > 50 |  |  |
| C[C@@H]1NC(=O)[C@H](Cc2c[nH]cn2)NC(=O)[C@H](Cc2ccc(O)cc2)NC(=O)[C@@H]2CCCN2C(=O)[C@@H](Cc2cn(Cc3ccccc3)cn2)NC(=O)[C@H](CCCCN)NC(=O)[C@H](CCC(N)=O)NC(=O)[C@H](Cc2ccc(O)cc2)NC(=O)[C@@H]2CSSC[C@H](NC1=O)C(=O)N[C@@H](CO)C(=O)N[C@@H](C)C(=O)N1CCC[C@@H]1C(=O)N[C@@H](CCN)C(=O)N[C@@H](CCCNC(=N)N)C(=O)N[C@@H](Cc1ccc(O)cc1)C(=O)N2 [compound 5] | 0.92 ± 0.2 | 4 | 4 | > 50 | 1 | > 50 |  |  |
